Measured values as given in patent US12728119B2, “Pharmaceutical composition for preventing or treating cancer comprising 3-ketoacyl CoA thiolase inhibitor and carnitine acylcarnitine carrier inhibitor” (NATIONAL CANCER CENTER, priority 2020, dated 2026).
Several values for one entry are separate records, joined by “and”; a condition that tells them apart may be missing. Equal values may be shown once.

Key:
Assay type in all cases: cell-based
[1] = tested on: U87MG glioblastoma (GBM) cell line; experiment: SRB analysis 3; details: 48 hours
Experimental: (§1) Through SRB analysis (n=3), the effect of triple combination treatment of a CAC inhibitor ([…] inhibitor (KN713: trimetazidine) and other anticancer drug on cell growth in the cancer cells was analyzed. (see Table 11). The SRB assay was performed as follows: each cell line (100 μl) was seeded into 96-well microtiter plates at densities ranging from 5,000 to 40,000 cells/well depending on the doubling time of each cell line. After 24 hours, drug (100 μl per well) was added to each well and the culture was incubated at 37° C. for 48 hours. Cells were then fixed in 50% TCA (50 μl per well) and plates were incubated at 4° C. for a minimum of 1 hour or a maximum of 3 hours. After that, the liquid was removed from the plate, then rinsed 5 times with water and dried for approximately 12-24 hours at room temperature (RT). After the fixed cells were stained with 0.4% SRB (100 μl per well) for 10 minutes at room temperature, the plates were washed 3 times with 1% glacial acetic acid and dried at room temperature for about 12-24 hours. SRB staining was dissolved in 10 mM Trizma base and absorbance was read at 515 nm.

[2] = tested on: T87G glioblastoma (GBM) cell line; experiment: SRB analysis 3; details: 48 hours
Experimental: as §1

[3] = tested on: Capan1 pancreatic cancer cell line; experiment: SRB analysis 1; details: Homo sapiens, % compared to the control group, read-out: degree of growth inhibition
Experimental: (§2) Pancreatic cancer (MIA PaCa2, Capan1, Capan2, BxPC-3, SNU-213 or SNU-324) cell lines (100 μl) were seeded into 96-well microtiter plates at densities ranging from 7,500 to 10,000 cells/well depending on the doubling time of each cell line. After adding Trimetazidine (KN713) 1 mM, omeprazole (KN510) 100 or 200 μM, trimetazidine 1 mM+omeprazole 100 μM, trimetazidine 1 mM+omeprazole 200 μM, respectively, to each well by 100 μl each, and plate was incubated in a CO2 incubator, and cold TCA was added to terminate the assay. 50 μl of cold 50% (w/v) TCA (final concentration: 10% TCA) was gently added to fix the cells and incubated at 4° C. for 60 minutes. The supernatant was discarded and the plate was washed 5 times with tap water and then air dried. A solution of 0.4% (w/v) Sulforhodamine B (100 μl) in 1% acetic acid was added to each well, and the plate was left at room temperature for 10 minutes. After staining, the plates were air dried after washing 5 times with 1% acetic acid to remove unbound dye. The bound dye was then solubilized with 10 mM trizma base and the absorbance was recorded at 515 nm using an automated plate reader.

[4] = tested on: BxPC-3 pancreatic cancer cell line; experiment: SRB analysis 1; details: Homo sapiens, % compared to the control group, read-out: degree of growth inhibition
Experimental: as §2

[5] = tested on: Capan2 pancreatic cancer cell line; experiment: SRB analysis 1; details: Homo sapiens, % compared to the control group, read-out: degree of growth inhibition
Experimental: as §2

[6] = tested on: SNU-324 pancreatic cancer cell line; experiment: SRB analysis 1; details: % compared to the control group, read-out: degree of growth inhibition
Experimental: as §2

[7] = tested on: SNU-213 pancreatic cancer cell line; experiment: SRB analysis 1; details: % compared to the control group, read-out: degree of growth inhibition
Experimental: as §2

[8] = tested on: MIA PaCa2 pancreatic cancer cell line; experiment: SRB analysis 1; details: Homo sapiens, % compared to the control group, read-out: degree of growth inhibition
Experimental: as §2

[9] = tested on: BxPC-3 pancreatic cancer cells; experiment: SRB analysis 2; details: 48 hours
Experimental: (§3) The SRB assay was performed as follows: each cell line (100 μl) was seeded into 96-well microtiter plates at densities ranging from 5,000 to 20,000 cells/well depending on the doubling time of each cell line. After cell seeding, microtiter plates were incubated for 24 h before addition of experimental drug. Drugs were prepared at the indicated concentrations and 100 μl was added to each well; The plates were then incubated in a CO2 incubator. Then, cold TCA was added to terminate the assay. Cells were fixed in situ by gentle addition of 50 μl of cold 50% (w/v) TCA (final concentration: 10% TCA) and incubated at 4° C. for 60 min. The supernatant was discarded and the plate was washed 5 times with tap water and then air dried. A solution (100 μl) of 0.4% (w/v) SRB (Sulforhodamine B) in 1% acetic acid was added to each well, and the plate was left at room temperature for 10 minutes. After staining, the plates were air dried after washing 5 times with 1% acetic acid to remove unbound dye. The bound dye was then solubilized with 10 mM trizma base and the absorbance was recorded at 515 nm using an automated plate reader.

[10] = tested on: SNU-213 pancreatic cancer cells; experiment: SRB analysis 2; details: SNU213, 48 hours
Experimental: as §3

[11] = tested on: SNU-324 pancreatic cancer cells; experiment: SRB analysis 2; details: SNU324, 48 hours
Experimental: as §3

[12] = tested on: MIA PaCa2 pancreatic cancer cells; experiment: SRB analysis 2; details: MIA PaCa-2, 48 hours
Experimental: as §3

[13] = tested on: AsPC-1 pancreatic cancer cells; experiment: SRB analysis 2; details: 48 hours
Experimental: as §3

[14] = tested on: SU.86.86 pancreatic cancer cells; experiment: SRB analysis 2; details: 48 hours
Experimental: as §3

SMILES: COc1ccc2[nH]c([S+]([O-])Cc3ncc(C)c(OC)c3C)nc2c1 (stereo not shown) [KN510, omeprazole]
- cell growth (Control = 100) ([1]; KN510 100 μM): 84.15
- cell growth (Control = 100) ([2]; KN510 100 μM): 67.87
- cell growth (% of control) at 100 µM ([3]; CAPAN-1, KN510 100 μM): 97.6%
- cell growth (% of control) at 200 µM ([3]; CAPAN-1, KN510 200 μM): 111%
- inhibition at 100 µM ([4]; BX-PC3, KN510 100 μM): 79.5%
- inhibition at 200 µM ([4]; BX-PC3, KN510 200 μM): 96.9%
- inhibition at 100 µM ([5]; Capan-2, KN510 100 μM): 1.3%
- inhibition at 200 µM ([5]; Capan-2, KN510 200 μM): 49.5%
- inhibition at 100 µM ([6]; KN510 100 μM): 68.2%
- inhibition at 200 µM ([6]; KN510 200 μM): 89.8%
- inhibition at 100 µM ([7]; KN510 100 μM): 81%
- inhibition at 200 µM ([7]; KN510 200 μM): 89.6%
- inhibition at 100 µM ([8]; MIA PaCa-2, KN510 100 μM): 70.8%
- inhibition at 200 µM ([8]; MIA PaCa-2, KN510 200 μM): 92.8%
- degree of cell growth based on the control (100%) ([9]; KN510 100 μM): 40.19%
- degree of cell growth based on the control (100%) ([9]; KN510 200 μM): 17.37%
- degree of cell growth based on the control (100%) ([10]; KN510 100 μM): 97.11%
- degree of cell growth based on the control (100%) ([10]; KN510 200 μM): 54.29%
- degree of cell growth based on the control (100%) ([11]; KN510 100 μM): 43.26%
- degree of cell growth based on the control (100%) ([11]; KN510 200 μM): 19.68%
- degree of cell growth based on the control (100%) ([12]; KN510 100 μM): 86.46%
- degree of cell growth based on the control (100%) ([12]; KN510 200 μM): 44.41%
- degree of cell growth based on the control (100%) ([13]; KN510 100 μM): 77.31%
- degree of cell growth based on the control (100%) ([13]; KN510 200 μM): 28.00%
- degree of cell growth based on the control (100%) ([14]; KN510 100 μM): 78.12%
- degree of cell growth based on the control (100%) ([14]; KN510 200 μM): 53.01%

SMILES: COc1ccc(CN2CCNCC2)c(OC)c1OC [KN713, trimetazidine]
- cell growth (Control = 100) ([1]; KN713 2.5 mM): 66.40
- cell growth (Control = 100) ([2]; KN713 2.5 mM): 59.89
- cell growth (% of control) at 1000 µM ([3]; CAPAN-1, KN713 1 mM): 31.2%
- inhibition at 1000 µM ([4]; BX-PC3, KN713 1 mM): 12.3%
- inhibition at 1000 µM ([5]; Capan-2, KN713 1 mM): -22.2%
- inhibition at 1000 µM ([6]; KN713 1 mM): -3.16%
- inhibition at 1000 µM ([7]; KN713 1 mM): 48.1%
- inhibition at 1000 µM ([8]; MIA PaCa-2, KN713 1 mM): 30.2%
- degree of cell growth based on the control (100%) ([9]; KN713 2.5 mM): 36.83% and 32.97%
- degree of cell growth based on the control (100%) ([10]; KN713 2.5 mM): −0.24% and 1.98%
- degree of cell growth based on the control (100%) ([11]; KN713 2.5 mM): 53.40% and 61.55%
- degree of cell growth based on the control (100%) ([12]; KN713 2.5 mM): 78.16% and 58.31%
- degree of cell growth based on the control (100%) ([13]; KN713 2.5 mM): 61.66% and 62.56%
- degree of cell growth based on the control (100%) ([14]; KN713 2.5 mM): 88.97% and 65.95%
